Measured values: patent US8057992B2, “Methods for identifying peptides that bind to intact oocytes” (Auburn University, priority 2007, dated 2011)
Entries after “also recorded” stand apart in the source; their conditions may differ. Ends that are not written are not given here.

Key:
[1] = system: ZP proteins on intact canine oocytes; assay: Phage display selection of ZP-binding peptides on intact canine oocytes; details: four rounds of selection, 1000 intact canine oocytes per round, 7-mer and 12-mer phage display libraries
Method: The phage display procedure developed herein utilizes intact oocytes surrounded by ZP proteins. In this procedure, ZP proteins remain on oocytes in their native conformation, unlike previously published selection protocols that use denatured ZPs immobilized on an artificial solid support. The procedure involves incubating isolated oocytes with a phage display library followed by washing of unbound phage. Oocytes are lysed, and bound phage are amplified in bacterial cultures. Enrichment in ZP-binding phage clones is achieved in four subsequent selection rounds, after which selected phage DNAs are sequenced and translated to obtain peptide sequences.
Collection of dog ova: Oocytes were isolated from dog ovaries obtained from spay/neuter clinics. All ovaries were collected from bitches (six months of age and older) undergoing elective ovariohysterectomy. Approximately 20-30 oocytes from each pair of ovaries were isolated. Ova were washed extensively, retrieved by visual inspection at 12× magnification, washed two additional times, pooled and frozen before the use. Oocytes isolated from dog ovaries were characterized by microscopic evaluations.
Identification of peptides that bind to ZP proteins on intact canine oocytes: Peptides that specifically bind to ZP proteins were identified by utilizing two phage display libraries purchased from New England BioLabs, including: PhD-C7C Peptide 7-mer Library Kit and PhD-12 Peptide Library Kit. The utilized approach selects peptides that mimic the sperm antigen at the level of the ZP-sperm binding (FIG. 2).
Four rounds of selection were performed using each library. For each selection round, an aliquot of the primary library was diluted in a blocking buffer and incubated with 1000 intact canine oocytes surrounded by ZP. After incubation, phages expressing peptides not bound to oocytes were washed away and the bound phages were recovered by lysis. […] Peptide sequences from phage display selection on intact dog oocytes surrounded by ZP included: LNSFLRS (SEQ ID NO:1), LSTALRS (SEQ ID NO:2), SSWYRGA (SEQ ID NO:3), TGTSTRA (SEQ ID NO:4), YLPIYTIPSMVY (SEQ ID NO:5), NNQSPILKLSIH (SEQ ID NO:6), and AHPNTAPIHPKF (SEQ ID NO:7). Based on the peptide sequences, the following five antigens were prepared: antigen 1—YLPVGGLRRIGG (SEQ ID NO:14), antigen 2—CLNSFLRSC-KGG (SEQ ID NO:9), antigen 3—YLPIYTIPSMVY-GG (SEQ ID NO:12), antigen 4—NNQSPILKLSIH-GG (SEQ ID NO:13), and antigen 5—CSSWYRGAC-KGGY (SEQ ID NO:11).

canine sperm cells = assay: Sperm cell ELISA of serum from dogs immunized with antigen 4; format: in vivo; details: three dogs immunized with antigen 4; sperm cell ELISA at serum dilution 1:50 (FIG. 5)
dogs = assay: Peptide ELISA of serum from immunized dogs for anti-peptide antibodies; format: in vivo, dog
Method: Immunization of dogs with ZP-binding peptides conjugated to a carrier protein: The peptides were synthesized by Global Peptide Services (Fort Collins, Colo.) at a yield of 10-20 mg having 95% purity. Two of the selected peptides were 7 amino acids long and the other two were 12 amino acids long. Antigen was taken from the literature (6) to serve as a control. To assure maximum immunogenicity, the peptides were conjugated to keyhole-limpet hemocyanin (KLH), a carrier protein. For vaccinations, the antigen was formulated to include: 250 μg of KLH conjugated peptide mixed with aluminum hydroxide adjuvant (Alhydrogel 85) and 100 μg canine specific immunostimulatory oligodeoxynucleotide (CpG). Four of the selected peptides and one control peptide were injected intramusculary into each dog (one dog/peptide). Booster immunizations were given twice to achieve high titer antisera. Each immunized dog served as his/her own control since none were expected to have preexisting antibodies to the selected peptides.
Evaluation of serum collected from immunized dogs for anti-ZP-binding peptide antibodies: Serum samples were collected from all dogs prior to immunization and biweekly or monthly thereafter during a 12-month period. The samples were tested for the presence of anti-peptide antibodies in a peptide ELISA format. […] The immunization scheme was as described above.

Substance	binding to ZP (peptide sequences of phage selected on intact dog oocytes) [1]	other results
NNQSPILKLSIH (Phage library random peptide insert) [SEQ ID NO:6]	responsible for binding to ZP	–
NNQSPILKLSIH-GG (NNQSPILKLSIHGG; also: conjugated to carrier protein) [antigen 4]	–	binding of raised antibodies to canine sperm cells (anti-sperm antibody levels) (canine sperm cells): bind to canine sperm cells; immunogenicity: anti-peptide antibody levels in serum (dogs; one dog per antigen, 250 μg KLH conjugated peptide with aluminum hydroxide adjuvant and CpG, intramuscular, two boosts, peptide ELISA at serum dilution 1:6400 (FIG. 3)): specific anti-peptide antibodies at high levels; also recorded: high immunogenic properties; titers of anti-peptide antibodies (dogs; three additional dogs, same immunization scheme, peptide ELISA at serum dilution 1:6400 (FIG. 4)): high titers of anti-peptide antibodies
AHPNTAPIHPKF (Phage library random peptide insert) [SEQ ID NO:7]	responsible for binding to ZP	–
TGTSTRA (Phage library random peptide insert) [SEQ ID NO:4]	responsible for binding to ZP	–
LNSFLRS (Phage library random peptide insert) [SEQ ID NO:1]	responsible for binding to ZP	–
SSWYRGA (Phage library random peptide insert) [SEQ ID NO:3]	responsible for binding to ZP	–
LSTALRS (Phage library random peptide insert) [SEQ ID NO:2]	responsible for binding to ZP	–
YLPIYTIPSMVY (Phage library random peptide insert) [SEQ ID NO:5]	responsible for binding to ZP	–
